{
  "source": "patent US20220323472A1",
  "about": "“ANTI-PARASITIC COMPOUNDS FOR THE TREATMENT AND PREVENTION OF VIRAL DISEASES” (priority 2021, published 2022)",
  "system": "Demodex mites",
  "test": "in vitro Demodex survival time assay (LT50)",
  "procedure": "FIG. 4 summarizes the activity of 10% chloroquine in water relative to a water control on activity against Demodex mites in an in vitro assay, with an LT5o of 31.6 hours for chloroquine compared to 44.8 hours for the water control, illustrating the inactivation effect of chloroquine on Demodex.\nAccordingly, chloroquine and ivermectin may be used to treat SAR-CoV-2 by reducing the microbial load or Demodex population of a patient suffering from viral infection.\nIn vitro efficacy and mite lifetimes: Relative efficacy of various formulations are evaluated with a demodex survival time experiments. FIG. 3 tabulates demodex survival time, expressed in terms of LT50 (time at which 50% of demodex mites are killed) and/or average minutes to death for various active agents.",
  "data": [
    {"smiles": "CCN(CC)CCCC(C)Nc1ccnc2cc(Cl)ccc12", "note": "(centres unmarked) [chloroquine]", "values": [
      {"measurement": "LT50 (time at which 50% of demodex mites are killed)", "setting": "10% chloroquine in water, in vitro assay, water control 44.8 hours", "result": 31.6, "unit": "h"},
      {"measurement": "ex-vivo activity against Demodex mites", "setting": "in vitro assay (FIGS. 3 and 4)", "result": "some ex-vivo activity"}
    ]}
  ]
}
